Key:
Format in all cases: cell-based, murine
[1] = test system: LTA-induced TLR-2 activation of RAW264.7 cells; test: LTA neutralization: LTA-induced TNFα release; conditions: peptide 0.08-20 μM; for Summary class, TLR activation LTA: 1 μg/ml LTA S. aureus, TNFα after 2 h, − = no significant effect, N = 3; for LTA neutralization / inhibition of LTA-induced activation, in words: 1 μg/ml S. aureus LTA, 2 h, TNFα
From the text: (§1) TLR ligands: LPS Escherichia coli (E. coli) O111:B4 (TLR-4), LTA S. aureus (TLR-2), and ODN-1826 (TLR-9) were obtained from Invivogen (Toulouse, France). Chicken CATH-2 (chCATH-2) and PMAP-36 were synthesized by Fmoc-chemistry at China Peptides (CPC scientific, Sunnycale, CA) and all other cathelicidins were synthesized by Fmoc-chemistry at the Academic Centre for Dentistry Amsterdam (Amsterdam, The Netherlands) (Table 1). Purity of all peptides was >95% as analyzed by HPLC-MS.
(§2) RAW264.7 cells were stimulated with 100 ng/ml LPS E. coli O111:B4, 1 μg/ml LTA S. aureus or 2.5 nM ODN-1826 in the presence of various concentrations of different cathelicidins. TNFα release was determined after 2 h for LPS and LTA stimulation and 24 h for ODN-1826 stimulation. CXCL10, CCL5 and IL-10 release were all determined after 24 h stimulation. As a control, RAW264.7 cells were stimulated for 2 h with 10^6 CFU/ml live or heat-killed (70 °C, 0.5 h) E. coli O78, followed by a double wash with cell culture medium and subsequent 22 h incubation in cell culture medium supplemented with 250 μg/ml gentamicin.
(§3) ELISA Duoset kits for mouse TNFα, CCL5, CXCL10 and IL-10 were obtained from R&D systems (Minneapolis, MN, USA) and ELISAs were performed according to the manufacturer’s protocol. Samples were stored at −20 °C until analysis and, if needed, diluted in 1% BSA in PBS, pH 7.4. Absorbance at 450 nm was determined in a FLUOstar Omega microplate reader (BMG Labtech GmbH) and corrected for absorbance at 570 nm. Results were analyzed with MARS data analysis software (BMG Labtech GmbH).
RAW264.7 cells were stimulated for 2 h with 100 ng/ml LPS from E. coli O111:B4 in the presence of different cathelicidins at various concentrations to study the capability of LPS neutralization (Fig. 3A). […] Next, RAW264.7 cells were stimulated with 1 μg/ml S. aureus LTA for 2 h in the presence of various cathelicidin concentrations, to test LTA neutralization (Fig. 3B).
(§4) Figure 3 Effects of cathelicidins on TLR-2, -4, and -9 activation. LPS (100 ng/ml) (A), LTA (1 μg/ml) (B) or ODN-1826 (2.5 nM) (C) was mixed with different cathelicidins (0.08 μM, 0.31 μM, 1.25 μM, 5 μM, and 20 μM) before addition to the RAW264.7 cells. Supernatants were collected after 2 hours (A,B) or 24 hours (C) incubation and TNFα expression was measured. The dotted line represents the average cytokine release of control samples. Results are presented as average +/− SEM (N = 3). Statistical differences were determined by Two-way ANOVA with Bonferroni post-hoc test.

[2] = test system: CCL5 (RANTES) release by RAW264.7 cells; test: Cathelicidin induced CCL5 release; conditions: for Induction of CCL5 secretion after 24 h stimulation: 20 μM peptide; for Summary class, chemokines CCL5 (24 h): 24 h stimulation, peptide 0.08-20 μM, − = no significant effect, N = 3
Description: (§5) E. coli O78 (Zoetis Animal Health, Kalamazoo, MI, USA), E. coli ATCC 25922, Staphylococcus aureus ATCC 29213, and methicillin resistant Staphylococcus aureus (MRSA) (WKZ-2, human clinical isolate) were grown overnight from a glycerol stock in Mueller Hinton Broth (MHB) (Becton Dickinson, USA). Before use, bacteria were grown to mid-log phase in MHB for 2 hours at 37 °C, 200 RPM. Murine RAW264.7 macrophages (ATCC-TIB-71) were obtained from the American Type Culture Collection (ATCC, Manassas, VA, USA) and cultured in DMEM (41966-029; Thermo Fisher Scientific, Waltham, MA, USA) supplemented with 10% FCS (Bodinco B.V., Alkmaar, the Netherlands) (DMEM + FCS) at 37 °C, 5.0% CO2. Cells were seeded in 96-wells plates at 5 × 10^5 cells/ml or 12-wells plates at 2 × 10^5/ml for adherence overnight prior to stimulation.
as §2, §3
(§6) Since cathelicidins have membrane-perturbing properties which might affect the host’s cell membrane, first the possible cytotoxicity of the cathelicidins to RAW264.7 cells was assessed. […] Next, RAW264.7 cells were stimulated with the cathelicidins at various concentrations for 2 h and 24 h, after which release of CCL2 (MCP-1), CCL5 (RANTES), CXCL10 (IP-10), TNFα and IL-10 was determined.
Figure 2 Cathelicidin induced chemokine and cytokine release by RAW264.7 cells. RAW264.7 cells were incubated for 2 h and 24 h with cathelicidins (0.08 μM, 0.31 μM, 1.25 μM, 5 μM, and 20 μM), after which the supernatants were harvested and tested for release of CCL2 at 2 h (A) and 24 h (B), CCL5 at 24 h (C) and CXCL10 at 24 h (D). Dotted line represents average cytokine release of control samples. […] Statistical differences were determined by Two-way ANOVA with Bonferroni post-hoc test.

[3] = test system: DNA-induced TLR-9 activation of RAW264.7 cells; test: Enhancement of DNA (ODN-1826)-induced TNFα release; conditions: 2.5 nM ODN-1826, TNFα after 24 h; for Summary class, TLR activation DNA: peptide 0.08-20 μM, − = no significant effect, N = 3; for Enhancement of DNA-induced TLR-9 activation, in words: 20 μM for the named peptides
From the text: as §1, §2, §3, §4
All other peptides had no effect on the DNA-induced TLR-9 activation. To ensure that the increase of TNFα secretion was indeed enhancement of DNA-induced activation and not a result of direct induction by cathelicidins, TNFα release was determined after 24 h cathelicidin stimulation (see Supplementary Fig. S2D). None of the cathelicidins induced TNFα release after 24 h, (if anything, most cathelicidins caused a small reduction of TNFα secretion) indicating the increased activation is indeed enhancement of DNA-induced activation.

[4] = test system: CCL2 (MCP-1) release by RAW264.7 cells; test: Cathelicidin induced CCL2 release; conditions: for Summary class, chemokines CCL2 (2 h): 2 h stimulation, − = no significant effect, N = 3
Description: as §5, §3, §6
(§7) Figure 2 Cathelicidin induced chemokine and cytokine release by RAW264.7 cells. RAW264.7 cells were incubated for 2 h and 24 h with cathelicidins (0.08 μM, 0.31 μM, 1.25 μM, 5 μM, and 20 μM), after which the supernatants were harvested and tested for release of CCL2 at 2 h (A) and 24 h (B), CCL5 at 24 h (C) and CXCL10 at 24 h (D). Dotted line represents average cytokine release of control samples. Results are presented as average +/− SEM (N = 3). Statistical differences were determined by Two-way ANOVA with Bonferroni post-hoc test.

[5] = test system: CXCL10 (IP-10) release by RAW264.7 cells; test: Cathelicidin induced CXCL10 release; conditions: for Increase of CXCL10 secretion after 24 h stimulation: 20 μM peptide; for Summary class, chemokines CXCL10 (24 h): 24 h stimulation, peptide 0.08-20 μM, − = no significant effect, N = 3
Description: as §5, §2, §3, §6, §7

Substance: RFGRFLRKIRRFRPKVTITIQGSARF-NH2 [chCATH-2, chicken CATH-2, C-terminal amide, 26 residues, charge +9]
- Summary class, TLR activation LTA [1]: ↓↓ (↓↓ = significant decrease ≤5 μM)
- LTA neutralization / inhibition of LTA-induced activation, in words [1]: potently inhibited
- Induction of CCL5 secretion after 24 h stimulation [2]: 2–3 fold
- Summary class, chemokines CCL5 (24 h) [2]: ↑ (↑ = significant increase at 20 μM)
- Optimal concentration to induce DNA activation [3]: 1.25 µM
- Summary class, TLR activation DNA [3]: ↑↑ (↑↑ = significant increase ≤5 μM)
- Enhancement of CCL2 secretion after 2 h stimulation ([4]; 20 μM peptide): 3–4 fold
- Summary class, chemokines CCL2 (2 h) ([4]; peptide 0.08-20 μM): ↑ (↑ = significant increase at 20 μM)

Substance: RRRPRPPYLPRPRPPPFFPPRLPPRIPPGFPPRFPPRFP [PR-39, porcine proline-rich cathelicidin forming a polyproline helix, 39 residues, charge +10]
- Enhancement of DNA-induced TLR-9 activation, in words [3]: able to enhance DNA-induced TLR-9 activation
- Summary class, TLR activation DNA [3]: ↑ (↑ = significant increase at 20 μM)
- Effect on CCL2 secretion after 24 h stimulation, in words ([4]; 24 h, peptide 0.08-20 μM): non-significant

Substance: RIIDLLWRVRRPQKPKFVTVWVR [PMAP-23, porcine α-helical cathelicidin, 23 residues, charge +6]
- Summary class, TLR activation LTA [1]: ↓ (↓ = significant decrease at 20 μM)
- Enhancement of DNA-induced TLR-9 activation, in words [3]: able to enhance DNA-induced TLR-9 activation
- Summary class, TLR activation DNA [3]: ↑ (↑ = significant increase at 20 μM)

Substance: RLKELITTGGQKIGEKIRRIGQRIKDFFKNLQPREEKS [Peptide K9CATH, dog cathelicidin, 38 residues, charge +6]
- Induction of CCL5 secretion after 24 h stimulation [2]: 2–3 fold
- Summary class, chemokines CCL5 (24 h) [2]: ↑ (↑ = significant increase at 20 μM)
- Increase of CXCL10 secretion after 24 h stimulation [5]: 2–3 fold
- Summary class, chemokines CXCL10 (24 h) [5]: ↑ (↑ = significant increase at 20 μM)

Substance: KRRHWFPLSFQEFLEQLRRFRDQLPFP [eCATH-2, equine CATH-2, 27 residues, charge +4]
- Summary class, TLR activation LTA [1]: ↓↓ (↓↓ = significant decrease ≤5 μM)
- LTA neutralization / inhibition of LTA-induced activation, in words [1]: significantly inhibited
- Enhancement of DNA-induced TLR-9 activation, in words [3]: able to enhance DNA-induced TLR-9 activation
- Summary class, TLR activation DNA [3]: ↑ (↑ = significant increase at 20 μM)
- Increase of CXCL10 secretion after 24 h stimulation [5]: 2–3 fold
- Summary class, chemokines CXCL10 (24 h) [5]: ↑ (↑ = significant increase at 20 μM)

Substance: Ac-GRFRRLRKKTRKRLKKIGKVLKWIPPIVGSIPLGCG [PMAP-36, porcine α-helical cathelicidin, N-acetylated, 36 residues, charge +13]
- Enhancement of CCL2 secretion after 2 h stimulation ([4]; 5 μM peptide): 3–4 fold

Substance: GLLRKGGEKIGEKLKKIGQKIKNFFQKLVPQPEQ [CRAMP, murine cathelicidin, 34 residues, charge +6]
- Summary class, TLR activation LTA [1]: ↓ (↓ = significant decrease at 20 μM)
- Increase of CXCL10 secretion after 24 h stimulation [5]: 2–3 fold
- Summary class, chemokines CXCL10 (24 h) [5]: ↑ (↑ = significant increase at 20 μM)

Substance: RVKRFWPLVPVAINTVAAGINLYKAIRRK [chCATH-3, chicken CATH-3, 29 residues, charge +7]
- Enhancement of CCL2 secretion after 2 h stimulation ([4]; 5 μM peptide): 3–4 fold
- Enhancement of CCL2 secretion after 2 h stimulation ([4]; 20 μM peptide): 3–4 fold
- Summary class, chemokines CCL2 (2 h) ([4]; peptide 0.08-20 μM): ↑↑ (↑↑ = significant increase ≤5 μM)
